Results reported in patent US12077522B2, “Heterocyclic compound and application thereof” (Takeda Pharmaceutical Company Limited, priority 2018, dated 2024).

The compounds below were run against T1, human orexin type 2 receptor (Homo sapiens, UniProt O43614) (assay: Measurement of orexin type 2 receptor agonist activity (calcium fluorescence, Fluo-4 AM, FDSS)). Conditions: compound at 3 μM; CHO cells forcibly expressing human OX2 receptor; DMSO = 0%, orexin A (human) 10 nM = 100%.
T1 construct: expressed in transfected cells
T1 sequence (O43614 1-444): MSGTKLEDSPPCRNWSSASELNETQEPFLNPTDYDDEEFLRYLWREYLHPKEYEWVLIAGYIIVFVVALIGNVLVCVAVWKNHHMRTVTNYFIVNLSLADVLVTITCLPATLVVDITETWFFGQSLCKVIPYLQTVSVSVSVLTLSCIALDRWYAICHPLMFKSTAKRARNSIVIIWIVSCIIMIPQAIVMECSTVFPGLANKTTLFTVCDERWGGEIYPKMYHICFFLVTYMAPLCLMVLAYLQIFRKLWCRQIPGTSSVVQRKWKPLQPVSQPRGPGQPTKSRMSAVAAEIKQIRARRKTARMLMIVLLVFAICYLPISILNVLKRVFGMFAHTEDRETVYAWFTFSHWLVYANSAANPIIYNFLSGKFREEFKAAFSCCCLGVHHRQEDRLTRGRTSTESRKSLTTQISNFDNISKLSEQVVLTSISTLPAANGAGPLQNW
Assay type: cell-based
Text: To obtain a cell clone stably expressing human orexin type 2 receptor, human orexin type 2 receptor cDNA was inserted into pcDNA3.1(+) plasmid vector (Invitrogen), and a plasmid DNA for expression of human orexin type 2 receptor (pcDNA3.1(+)/hOX2R) was cloned. The plasmid DNA was introduced into CHO-dhfr cell by an electroporation method, and human orexin type 2 receptor expressing clone cells were obtained by limiting dilution method by using G418 drug resistance as a selection marker.
CHO cells forcibly expressing human OX2 receptor were seeded in each well of 384 well black transparent bottom plate (BD Falcon) at 7,500 cells/well, and cultured for one day in a 5% CO2 incubator at 37° C. After removal of the medium in the cell plate, assay buffer A containing a calcium indicator (HBSS (Thermo Fisher Scientific), 20 mM HEPES (Thermo Fisher Scientific), 0.1% BSA (Wako Pure Chemical Industries, Ltd. or Sigma-Aldrich), 2.5 μg/mL Fluo-4 AM (DOJINDO Chemical), 0.08% Pluronic F127 (DOJINDO Chemical), 1.25 mM probenecid (DOJINDO Chemical)) was added at 30 μL/well. The plate was stood for 30 min in a 5% CO2 incubator at 37° C., and further stood at room temperature for 30 min. A test compound prepared by diluting with assay buffer B (HBSS, 20 mM HEPES, 0.1% BSA) was added at […], and the fluorescence value was measured by FDSSpCELL (Hamamatsu Photonics K.K.) every one sec for 1 min, and thereafter every two sec for 1 min 40 sec. The activity (%) of the test compound was calculated assuming that variation in the fluorescence value when DMSO was added instead of the test compound was 0%, and variation in the fluorescence value when orexin A (human) (PEPTIDE INSTITUTE, INC.) was added at the final concentration of 10 nM was 100%. The activity of each compound at the concentration of 3 μM was shown below.

| OX2R agonist activity (3 μ M, %) [%] | Compound |
| --- | --- |
| 67 | O=C(NC1CCCN(C(=O)N2CCC2)C1COC1CCN(c2ncccn2)CC1)[C@@H]1CCCO1 (stereo in doubt) [Example 7, (2S)-N-[cis-1-(azetidine-1-carbonyl)-2-({[1-(pyrimidin-2-yl)piperidin-4-yl]oxy}methyl)piperidin-3-yl]oxolane-2-carboxamide] |
| 83 | O=C(NC1CCCN(C(=O)N2CCC2)C1COC1CCN(c2ncc(F)cn2)CC1)[C@@H]1CCCO1 (stereo in doubt) [Example 8, (2S)-N-[cis-1-(azetidine-1-carbonyl)-2-({[1-(5-fluoropyrimidin-2-yl)piperidin-4-yl]oxy}methyl)piperidin-3-yl]oxolane-2-carboxamide] |
| 94 | O=C(NC1CCCN(C(=O)C2CCC2)C1COC1CCN(c2ncccn2)CC1)[C@@H]1CCCO1 (stereo in doubt) [Example 11, (2S)-N-[cis-1-(cyclobutanecarbonyl)-2-({[1-(pyrimidin-2-yl)piperidin-4-yl]oxy}methyl)piperidin-3-yl]oxolane-2-carboxamide] |
| 99 | O=C(NC1CCCN(C(=O)C2CCC2)C1COC1CCN(c2ncc(F)cn2)CC1)[C@@H]1CCCO1 (stereo in doubt) [Example 12, (2S)-N-[cis-1-(cyclobutanecarbonyl)-2-({[1-(5-fluoropyrimidin-2-yl)piperidin-4-yl]oxy}methyl)piperidin-3-yl]oxolane-2-carboxamide] |
| 81 | O=C(NC1CCCN(C(=O)C2(O)CCC2)C1COC1CCN(c2ncccn2)CC1)[C@@H]1CCCO1 (stereo in doubt) [Example 13, (2S)-N-[cis-1-(1-hydroxycyclobutane-1-carbonyl)-2-({[1-(pyrimidin-2-yl)piperidin-4-yl]oxy}methyl)piperidin-3-yl]oxolane-2-carboxamide] |
| 92 | O=C(NC1CCCN(C(=O)C2(O)CCC2)C1COC1CCN(c2ncc(F)cn2)CC1)[C@@H]1CCCO1 (stereo in doubt) [Example 14, (2S)-N-[cis-2-({[1-(5-fluoropyrimidin-2-yl)piperidin-4-yl]oxy}methyl)-1-(1-hydroxycyclobutane-1-carbonyl)piperidin-3-yl]oxolane-2-carboxamide] |
| 96 | CC(C)OC(=O)N1CCCC(NC(=O)[C@@H]2CCCO2)C1COC1CCN(c2ncccn2)CC1 (stereo in doubt) [Example 15, propan-2-yl cis-3-{[(2S)-oxolane-2-carbonyl]amino}-2-({[1-(pyrimidin-2-yl)piperidin-4-yl]oxy}methyl)piperidine-1-carboxylate] |
| 95 | CC(C)OC(=O)N1CCCC(NC(=O)[C@@H]2CCCO2)C1COC1CCN(c2ncc(F)cn2)CC1 (stereo in doubt) [Example 16, propan-2-yl cis-2-({[1-(5-fluoropyrimidin-2-yl)piperidin-4-yl]oxy}methyl)-3-{[(2S)-oxolane-2-carbonyl]amino}piperidine-1-carboxylate] |
| 84 | CN(C)C(=O)C(=O)NC1CCCN(C(=O)C2CCC2)C1COC1CCN(c2ncc(F)cn2)CC1 (stereo not drawn) [Example 4, N^~2^~- [cis-1-(cyclobutanecarbonyl)-2-({[1-(5-fluoropyrimidin-2-yl)piperidin-4-yl]oxy}methyl)piperidin-3-yl]-N^~1^~,N^~1^~-dimethylethanediamide] |
| 98 | CCNC(=O)N1CCCC(NC(=O)C(=O)N(C)C)C1CO[C@H]1CC[C@@H](c2ccccc2)CC1 (stereo partly drawn) [Example 18, N^~2^~-[cis-1-(ethylcarbamoyl)-2-({[cis-4-phenylcyclohexyl]oxy}methyl)piperidin-3-yl]-N^~1^~,N^~1^~- dimethylethanediamide] |
| 75 | CCNC(=O)N1CCCC(NC(=O)C(=O)N(C)C)C1CO[C@H]1CC[C@@H](c2ccc(F)cc2)CC1 (stereo partly drawn) [Example 19, N^~2^~-[cis-1-(ethylcarbamoyl)-2-({[cis-4-(4-fluorophenyl)cyclohexyl]oxy}methyl)piperidin-3-yl]-N^~1^~,N^~1^~- dimethylethanediamide] |
| 102 | CCNC(=O)N1CCCC(NC(=O)C(=O)N(C)C)C1CO[C@H]1CC[C@@H](c2cccc(F)c2)CC1 (stereo partly drawn) [Example 21, N^~2^~-[cis-1-(ethylcarbamoyl)-2-({[cis-4-(3-fluorophenyl)cyclohexyl]oxy}methyl)piperidin-3-yl]-N^~1^~,N^~1^~- dimethylethanediamide] |
| 99 | CCNC(=O)N1CCCC(NC(=O)C(=O)N(C)C)C1CO[C@H]1CC[C@@H](c2ccccc2F)CC1 (stereo partly drawn) [Example 22, N^~2^~-[cis-1-(ethylcarbamoyl)-2-({[cis-4-(2-fluorophenyl)cyclohexyl]oxy}methyl)piperidin-3-yl]-N^~1^~,N^~1^~- dimethylethanediamide] |
